Reference: US10399971B2, “Compound for treating or preventing hyperuricemia or gout” (JIANGSU ATOM BIOSCIENCE AND PHARMACEUTICAL CO., LTD., priority 2015, dated 2019)

What was measured:
[1] = Acute toxicity of single oral dose in SD rats; conditions: for Weight gain rate (%): 14 day compared with 0 day
hyperuricemia mice = experiment: Uric acid excretion test in hyperuricemia mice; format: in vivo, Kunming mice; conditions: 15 mg/kg oral
Experimental: Species: Kingming mice (Clean Level); body weights: 25 to 30 g; ages: 4 to 5 weeks; sex: male. These mice were purchased from Shanghai SLAC Laboratory Animal Co., Ltd. Certificate No.: SCXK (HU) 2012-2002. Animal quality certificate number: 2015000522173.
A certain amount of adenine and yeast extract powder was weighted and a certain amount of double distilled water was added. The mixture was stirred at about 60° C. for 40 min to give a suspension, which the concentration of yeast extract is 0.6 g/mL and the concentration of adenine is 12 mg/mL.
A suspension of 20 mg/mL potassium oxonate was prepared by mixing a certain amount of potassium oxonate with 0.5% CMC-Na solution before use.
Male Kunming mice were randomly divided into four groups: blank control group, model group, compound 74 group, and benzbromarone group. Each group has six mice. All mice fasted 2 to 3 h before use. The model group, benzbromarone group, and compound 74 group were orally given a suspension of yeast extract and adenine prepared above to reach the final dosage of 10 g/kg (body weight) of yeast extract and 200 mg/kg (body weight) of adenine, respectively. The blank control group was only given same volume of normal saline orally. After 2.5 h, all mice in compound 74 group and benzbromarone group were given 10 mL/kg of suspension of compound 74 (1.5 mg/mL) and 10 mL/kg of suspension of benzbromarone (1.5 mg/mL), respectively. The blank control group and model group were orally given same volume of 0.5% CMC-Na solution. All animals were treated in the same way for seven days by using administration methods described above. On the last day, after administration of a suspension of yeast extract and adenine for the model group, compound 74 group, and benzbromarone group, all mice in these three groups were given 12.5 mL/kg of potassium oxonate (20 mg/mL) by i.p. The blank control was only given same volume of 0.5% CMC-Na solution by i.p. After 30 min, compound 74 and benzbromarone were administrated orally to the mice at same dosages as above in compound 74 group and benzbromarone group, respectively. The blank control group and model group were orally given same volume of 0.5% CMC-Na solution.
Collection of urine samples: All mice were placed in metabolic cages with normal diet individually after giving test compounds on the last day. 24 h urine was collected and the urine volume was measured. The urine was centrifugated at 3000 rpm for 20 min and the supernatant was collected.
Detection of the concentration of uric acid of mice urine samples: uric acid concentration in samples was detected by using uric acid assay kit (phosphotungstic acid method) followed the procedures described in the instruction.

hURAT1 = molecular target: T1, hURAT1 (Homo sapiens, UniProt Q96S37); experiment: Inhibition assay of uric acid transport in HEK293-hURAT1 transfection cell line; format: cell-based; conditions: 500 nM; HEK293-hURAT1 transfection cell line; 14C-uric acid; average of three tests; 0.5 µM
T1 sequence (Q96S37 1-553): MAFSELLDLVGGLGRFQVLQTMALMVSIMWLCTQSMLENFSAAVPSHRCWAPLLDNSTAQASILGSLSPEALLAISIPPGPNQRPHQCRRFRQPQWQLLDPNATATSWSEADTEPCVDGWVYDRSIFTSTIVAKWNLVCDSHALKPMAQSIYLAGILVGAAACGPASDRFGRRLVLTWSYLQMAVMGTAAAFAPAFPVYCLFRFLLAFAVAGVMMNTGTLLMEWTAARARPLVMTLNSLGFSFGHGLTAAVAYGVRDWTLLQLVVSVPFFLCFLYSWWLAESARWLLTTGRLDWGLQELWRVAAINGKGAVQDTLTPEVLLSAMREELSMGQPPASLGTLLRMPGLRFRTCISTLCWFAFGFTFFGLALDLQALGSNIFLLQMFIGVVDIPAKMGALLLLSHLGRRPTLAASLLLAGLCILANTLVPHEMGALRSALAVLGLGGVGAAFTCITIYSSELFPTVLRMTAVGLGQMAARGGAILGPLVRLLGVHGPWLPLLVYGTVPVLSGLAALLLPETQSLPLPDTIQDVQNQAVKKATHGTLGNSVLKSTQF
Experimental: 2.1 Construction of a HEK293 stable cell line with high expression of hURAT1: The plasmid pCMV6-hURAT1 was transfected into HEK293 cells, then the stable strain was obtained by the G418 (final concentration 500 μg/mL) resistance screening, which is the high expression of hURAT1 transporter membrane protein.
2.2 To a coated 24-well plate was added 200 μL of 0.1 mg/mL poly-lysine per well and the plate was left overnight. Poly-lysine was removed from wells. The wells were cleaned thoroughly with aseptic water and dried for use.
2.3 To the above coated 24 well plate was added HEK293-hURAT1 stable cells (2×10^5 cells per well). The cells was cultured at 37° C. under 5% CO2 for 3 days.
The solution was fully mixed to give HBSS buffer (pH value: 7.4). The buffer was stored at −20° C.
2.5 The HBSS buffer was warmed to 37° C. in a water bath. Washed cells with HBSS twice, added 160 μL of HBSS and 20 μL test compound per well. The final concentration of tested compound per well is 500 nM. The blank control well contains only 180 μL of HBSS without tested compound. The plate was placed at room temperature for 30 min.
2.6 To each well was added 20 μL of 50 μM ^14C-Uric acid. The plate was placed at room temperature for 20 min.
2.7 The solution in each well was removed and the cells in each well were washed with pre-cooled HBSS buffer. To each well was added 0.2 M NaOH to dissolve the cells. The solution containing cell fragments was collected and the right amount of scintillation liquid was added.
The formula for calculating the inhibitory rate of uric acid transport for compounds was shown as below: […]

[2] = female SD rats (n=5), 74 at 5.0 g/kg, BBR at 0.14 g/kg
[3] = male SD rats (n=5), 74 at 5.0 g/kg, BBR at 0.14 g/kg

CCc1nc2ccccn2c1C(=O)c1cc(Br)c(O)c(C#N)c1 [Compound 74, 3-bromo-5-(2-ethylimidazo[1,2-a]pyridine-3-carbonyl)-2-hydroxybenzonitrile hydrogen chloride]
Death rate ([1]; SD rats, single oral dose, 74 at 5.0 g/kg, BBR at 0.14 g/kg, 10 rats per group, 14 days observation): 0/10 | Weight 0 day (X ± SD) [1, 2]: 135.94 ± 5.62 g | Weight 7 day (X ± SD) [1, 2]: 183.02 ± 11.10 g | Weight gain rate (%) ([1]; female SD rats (n=5)): +53.0% | Weight 14 day (X ± SD) [1, 2]: 208.04 ± 11.90 g | Weight 0 day (X ± SD) [1, 3]: 149.06 ± 5.95 g | Weight 7 day (X ± SD) [1, 3]: 204.04 ± 21.69 g | Weight gain rate (%) ([1]; male SD rats (n=5)): +73.2% | Weight 14 day (X ± SD) [1, 3]: 258.12 ± 17.65 g | death of rats in pre-experiment of acute toxicity ([1]; pre-experiment, compound 74 at 5 g/kg (highest dose), benzbromarone at 0.14 g/kg): did not cause death | uric acid excretion increased compared with the model group (hyperuricemia mice; increase over model group): about 46.77% | Changes of uric acid excretion (compared with model group, %) (hyperuricemia mice; model group set to 100%): 146.77% | Uric acid in urine for 24 h, ±SD (hyperuricemia mice; seven days, 6 mice): 15.69 ± 1.53 mmol | Inhibitory rates of uric acid transport, ±SD (%) (hURAT1): 62.75 ± 5.73%
